Experiments:
MUP [1] = target: T1, MUP (Mus musculus, UniProt P11588); assay: 13C-1H HSQC spectra of valine-enriched MUP complexes; conditions: 13C-1H HSQC of complexes with valine-enriched MUP
T1 construct: made in house; host or cells: E. coli M15 cells with vector pqe30 MUP
T1 sequence (P11588 19-180): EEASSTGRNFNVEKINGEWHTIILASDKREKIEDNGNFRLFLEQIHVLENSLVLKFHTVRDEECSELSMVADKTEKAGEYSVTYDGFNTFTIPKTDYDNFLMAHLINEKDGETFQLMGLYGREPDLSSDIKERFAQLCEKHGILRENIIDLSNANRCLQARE

Mouse Urinary Protein = target: T2, Mouse Urinary Protein (Mus musculus, UniProt P11588); assay: 13C NMR relaxation (T1, T2) of valine 13CHD2-labeled MUP in absence and presence of ligand; conditions: for T1, Change / T2, Change: Protein vs Bound Protein; for T1, Bound Protein / T2, Bound Protein: 298 K;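 as to T1, Bound Protein: unit milliseconds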;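 as to T2, Bound Protein: unit milliseconds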
T2 construct: made in house; host or cells: E. coli M15 cells with vector pqe30 MUP
T2 sequence (P11588 19-180): T1 sequence (P11588 19-180)
Method: A 15 mg sample of L-valine-α-D-^12CD(^13CHD2)2 labeled MUP was dissolved in 650 μL phosphate buffered saline (10 mM potassium phosphate; 200 mM sodium chloride), to which was added 50 μL deuterium oxide. ^13C Relaxation rates (R2 and R1) of ^13CHD2 groups were determined using pulse sequences as described in Ishima et al., J. Am. Chem. Soc. 121:11589-11590 (1999). Spectral parameters were as follows: spectral width in the ^13C dimension, 900 Hz; spectral width in the ^1H dimension, 5200 Hz; number of real data points in the ^13C dimension, 128; number of real points in the ^1H dimension, 1408; number of transients per t1 increment, 8; probe temperature, 298 K. Prior to two-dimensional Fourier transformation, free induction decays were apodized with cosine-bell windowing functions according to known methods.
The NMR analysis was then repeated following addition of the small molecule ligand 1 μL of isobutyl pyrazine or 1 μL of isopropyl pyrazine to separate solutions of MUP. The data shown below in Tables I and II and in FIG. 8 were obtained, clearly showing the changes in T1 and T2 values obtained on addition of these small molecule ligands.

Major Urinary Protein = target: T3, Major Urinary Protein (Mus musculus, UniProt P11588); assay: S2axis order parameters of valine methyl groups from 600 MHz 13C R1/R2 relaxation of valine-enriched MUP and its complexes; conditions: for S^2axis: MUP-ligand complex, 600 MHz, 30° C., pH 7.0
T3 construct: made in house; host or cells: E. coli M15 cells with vector pqe30 MUP
T3 sequence (P11588 19-180): T1 sequence (P11588 19-180)
Method: Samples of [^13C^γ1,^γ2HD2]-U-^2H valine enriched MUP both alone and complexed with 2-methoxy-3-isopropylpyrazine and 2-methoxy-3-isobutylpyrazine were prepared from a single sample at pH 7.0 and a protein concentration of 1 mM. A further sample of methyl-^13C, ^2H enriched MUP was prepared at pH 7.0 and a protein concentration of 0.5 mM. Longitudinal (R1) and transverse (R2) ^13C relaxation rates were determined essentially as described by Ishima et al., J. Am. Chem. Soc. 121:11589-11590, 1999. All spectra were recorded at a proton frequency of 600 MHz and a probe temperature of 30° C. R1 rates were determined with relaxation delay times of 16, 64, 128, 240, 400, 720, 1120, 1600, 2240 and 2880 milliseconds. R2 rates were determined with relaxation delay times of 16, 32, 48, 64, 96, 160, 192, 240 and 288 milliseconds, and an effective field strength of 2 kHz. Relaxation data were fit to a single exponential decay function I=I0exp(−tR), where I0 is the initial resonance intensity, t is the relaxation delay time and R is the relaxation rate (R1 or R2). Relaxation data were fitted to the Lipari-Szabo model-free spectral density of the form: J(ω)=S^2τm/(1+ω^2τ^2m)+(1−S^2)τi/(1+ω^2τi^2), where τi^−1=τM^−1+τe^−1, τM is the overall molecular tumbling correlation time and τe is the effective internal correlation time. See Lipari and Szabo, J. Am. Chem. Soc. 104:4546-4559, 1982. This equation is valid for fast internal motions, τe<<τM, under which conditions the order parameter for methyl CH dipolar relaxation is given by S^2=Saxis^2[P2(cos θH]^2. Saxis^2 is the order parameter of the methyl rotation axis and θH is the angle made by the axis and the CH bond vector. A global rotational correlation time of […] was used for these calculations, according to the previously reported value. Zidek et al., Nature Str. Biol. 6:1118-1121, 1999. Although the valine residues were perdeuterated at non-methyl positions, the protein was otherwise protonated, and dipolar relaxation due to these “external” protons is not negligible for ^13C relaxation. Thus, by analogy with the work of Ishima et al. J. Am. Chem. Soc. 123:6164-6171, 2001, the contribution of these external protons to ^13C R2 values was estimated at 25% from the X-ray coordinates of MUP. Consequently, measured ^13C R^2 rates were multiplied by 0.75 to account for these external dipolar relaxation processes.

MUP [2] = target: T1, MUP; assay: Binding of small hydrophobic ligands to MUP (Kd)
[3] = valine methyl 59.HG1 (first line)
[4] = valine methyl 59.HG1 (second line)

shift perturbations of Val 82 γ1 and γ2 correlations (MUP [1]): Significant shift perturbations
T1, Change (Mouse Urinary Protein; 12.HG1): −8.387 milliseconds
T2, Change (Mouse Urinary Protein; 12.HG1): −8.329 milliseconds
T1, Change (Mouse Urinary Protein; 12.HG2): −40.959 milliseconds
T2, Change (Mouse Urinary Protein; 12.HG2): −9.198 milliseconds
T1, Change (Mouse Urinary Protein; 47.HG1): 2.421 milliseconds
T2, Change (Mouse Urinary Protein; 47.HG1): −13.342 milliseconds
T1, Change (Mouse Urinary Protein; 47.HG2): −76.984 milliseconds
T2, Change (Mouse Urinary Protein; 47.HG2): −4.561 milliseconds
T1, Change (Mouse Urinary Protein; 53.HG1): −50.272 milliseconds
T2, Change (Mouse Urinary Protein; 53.HG1): −14.174 milliseconds
T1, Change (Mouse Urinary Protein; 53.HG2): 8.962 milliseconds
T2, Change (Mouse Urinary Protein; 53.HG2): −7.866 milliseconds
T1, Change (Mouse Urinary Protein; 59.HG1 (first line)): −91.665 milliseconds
T2, Change (Mouse Urinary Protein; 59.HG1 (first line)): −16.574 milliseconds
T1, Change (Mouse Urinary Protein; 59.HG1 (second line)): −49.656 milliseconds
T2, Change (Mouse Urinary Protein; 59.HG1 (second line)): −6.181 milliseconds
T1, Change (Mouse Urinary Protein; 70.HG1): 209.318 milliseconds
T2, Change (Mouse Urinary Protein; 70.HG1): −41.741 milliseconds
T1, Change (Mouse Urinary Protein; 70.HG2): 86.431 milliseconds
T2, Change (Mouse Urinary Protein; 70.HG2): 11.930 milliseconds
T1, Change (Mouse Urinary Protein; 82.HG1): −10.201 milliseconds
T2, Change (Mouse Urinary Protein; 82.HG1): 10.857 milliseconds
T1, Change (Mouse Urinary Protein; 82.HG2): 0.991 milliseconds
T2, Change (Mouse Urinary Protein; 82.HG2): 19.924 milliseconds
contribution of valine side-chains to the entropy of binding (Mouse Urinary Protein; from relaxation data in the presence of ligand): do not contribute significantly
T1, Bound Protein (Mouse Urinary Protein; valine methyl 12.HG1): 1733.309 milliseconds
T2, Bound Protein (Mouse Urinary Protein; valine methyl 12.HG1): 161.437 milliseconds
T1, Bound Protein (Mouse Urinary Protein; valine methyl 12.HG2): 1509.370 milliseconds
T2, Bound Protein (Mouse Urinary Protein; valine methyl 12.HG2): 192.512 milliseconds
T1, Bound Protein (Mouse Urinary Protein; valine methyl 47.HG1): 1626.298 milliseconds
T2, Bound Protein (Mouse Urinary Protein; valine methyl 47.HG1): 168.574 milliseconds
T1, Bound Protein (Mouse Urinary Protein; valine methyl 47.HG2): 1067.605 milliseconds
T2, Bound Protein (Mouse Urinary Protein; valine methyl 47.HG2): 155.315 milliseconds
T1, Bound Protein (Mouse Urinary Protein; valine methyl 53.HG1): 2283.543 milliseconds
T2, Bound Protein (Mouse Urinary Protein; valine methyl 53.HG1): 177.873 milliseconds
T1, Bound Protein (Mouse Urinary Protein; valine methyl 53.HG2): 1355.764 milliseconds
T2, Bound Protein (Mouse Urinary Protein; valine methyl 53.HG2): 158.149 milliseconds
T1, Bound Protein (Mouse Urinary Protein; [3]): 1374.428 milliseconds
T2, Bound Protein (Mouse Urinary Protein; [3]): 195.222 milliseconds
T1, Bound Protein (Mouse Urinary Protein; [4]): 1572.793 milliseconds
T2, Bound Protein (Mouse Urinary Protein; [4]): 153.897 milliseconds
T1, Bound Protein (Mouse Urinary Protein; valine methyl 70.HG1): 1872.254 milliseconds
T2, Bound Protein (Mouse Urinary Protein; valine methyl 70.HG1): 162.943 milliseconds
T1, Bound Protein (Mouse Urinary Protein; valine methyl 70.HG2): 1077.097 milliseconds
T2, Bound Protein (Mouse Urinary Protein; valine methyl 70.HG2): 150.103 milliseconds
T1, Bound Protein (Mouse Urinary Protein; valine methyl 82.HG1): 925.102 milliseconds
T2, Bound Protein (Mouse Urinary Protein; valine methyl 82.HG1): 213.526 milliseconds
T1, Bound Protein (Mouse Urinary Protein; valine methyl 82.HG2): 668.810 milliseconds
T2, Bound Protein (Mouse Urinary Protein; valine methyl 82.HG2): 203.529 milliseconds
changes in Saxis^2 of the six valine residues in MUP upon binding (Major Urinary Protein): only minor changes
S^2axis (Major Urinary Protein; Val-12 C^γ1): 0.90
S^2axis (Major Urinary Protein; Val-12 C^γ2): 0.69
S^2axis (Major Urinary Protein; Val-47 C^γ1): 0.84
S^2axis (Major Urinary Protein; Val-47 C^γ2): 0.90
S^2axis (Major Urinary Protein; Val-53 C^γ1): 0.80
S^2axis (Major Urinary Protein; Val-53 C^γ2): 0.85
S^2axis (Major Urinary Protein; Val-59 C^γ1): 0.68
S^2axis (Major Urinary Protein; Val-59 C^γ2): 0.86
S^2axis (Major Urinary Protein; Val-70 C^γ1): 0.85
S^2axis (Major Urinary Protein; Val-70 C^γ2): 0.77
S^2axis (Major Urinary Protein; Val-82 C^γ1): 0.50
S^2axis (Major Urinary Protein; Val-82 C^γ2): 0.48
contribution of valine side-chains to the entropy of binding (Major Urinary Protein; from computations of Saxis^2 values, free protein and complexes): do not contribute significantly
Kd (MUP [2]): 560 nM
Structure (SMILES): COc1nccnc1C(C)C [2-methoxy-3-isopropylpyrazine]

Source: US20060154323A1, “Method for obtaining dynamic and structural data pertaining to proteins and protein/ligand complexes” (ProSpect Pharma, priority 2002, published 2006)
